Assay results reported in PubChem BioAssay AID248 (DTP/NCI, 2004).
Several values for one entry are separate records, joined by “and”; a condition that tells them apart may be missing. Equal values may be shown once. Toxic doses and inconclusive results are not listed. No stated cut-off is given here; in the data, active means T/C of 150% or more; inactive means T/C below 125%.

Test system: L1210 leukemia ip in BDF1 mice, survival T/C
Assay: NCI In Vivo Anticancer Drug Screen. Data for tumor model L1210 Leukemia (intraperitoneal) in B6D2F1 (BDF1) mice
Details: endpoint: mean survival time, higher = longer survival
Summary of the method: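 Antitumor effect is assessed in tumor-bearing animals. Survival in the compound arm is compared with a vehicle-dosed control arm and expressed as their quotient.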

[1] = dose: 100.0 mg/kg/injection, schedule: Q01DX001 (ip), vehicle: carboxymethylcellulose (CMC)
[2] = dose: 200.0 mg/kg/injection, schedule: Q01DX001 (ip), vehicle: carboxymethylcellulose (CMC)
[3] = dose: 400.0 mg/kg/injection, schedule: Q01DX001 (ip), vehicle: carboxymethylcellulose (CMC)
[4] = dose: 50.0 mg/kg/injection, schedule: Q04DX003 (ip), vehicle: saline with Tween-80
[5] = dose: 100.0 mg/kg/injection, schedule: Q04DX003 (ip), vehicle: saline with Tween-80
[6] = dose: 200.0 mg/kg/injection, schedule: Q04DX003 (ip), vehicle: saline with Tween-80
[7] = dose: 100.0 mg/kg/injection, schedule: Q01DX001 (ip), vehicle: saline
[8] = dose: 200.0 mg/kg/injection, schedule: Q01DX001 (ip), vehicle: saline
[9] = dose: 400.0 mg/kg/injection, schedule: Q01DX001 (ip), vehicle: saline
[10] = dose: 100.0 mg/kg/injection, schedule: Q04DX002 (ip), vehicle: saline with Tween-80
[11] = dose: 100.0 mg/kg/injection, schedule: Q01DX009 (ip), vehicle: Klucel (hydroxypropylcellulose) (HPC)
[12] = dose: 200.0 mg/kg/injection, schedule: Q01DX009 (ip), vehicle: Klucel (hydroxypropylcellulose) (HPC)
[13] = dose: 100.0 mg/kg/injection, schedule: Q04DX003 (ip), vehicle: Klucel (hydroxypropylcellulose) (HPC)
[14] = dose: 200.0 mg/kg/injection, schedule: Q04DX003 (ip), vehicle: Klucel (hydroxypropylcellulose) (HPC)
[15] = dose: 12.5 mg/kg/injection, schedule: Q01DX009 (ip), vehicle: saline
[16] = dose: 25.0 mg/kg/injection, schedule: Q01DX009 (ip), vehicle: saline
[17] = dose: 50.0 mg/kg/injection, schedule: Q01DX009 (ip), vehicle: saline
[18] = dose: 100.0 mg/kg/injection, schedule: Q01DX009 (ip), vehicle: saline

Measured: T/C

CCCOC(=O)c1ccc(OC(=O)NC)cc1
inactive: [1] 92 % of control | dose: 100.0 mg/kg/injection, schedule: Q01DX009 (ip), vehicle: carboxymethylcellulose (CMC) 101 % of control and 106 % of control | dose: 100.0 mg/kg/injection, schedule: Q04DX002 (ip), vehicle: carboxymethylcellulose (CMC) 102 % of control and 112 % of control | dose: 100.0 mg/kg/injection, schedule: Q04DX003 (ip), vehicle: carboxymethylcellulose (CMC) 102 % of control | [2] 102 % of control | dose: 200.0 mg/kg/injection, schedule: Q01DX009 (ip), vehicle: carboxymethylcellulose (CMC) 109 % of control and 88 % of control | dose: 200.0 mg/kg/injection, schedule: Q04DX002 (ip), vehicle: carboxymethylcellulose (CMC) 97 % of control and 102 % of control | dose: 200.0 mg/kg/injection, schedule: Q04DX003 (ip), vehicle: carboxymethylcellulose (CMC) 91 % of control | [3] 96 % of control | dose: 400.0 mg/kg/injection, schedule: Q04DX002 (ip), vehicle: carboxymethylcellulose (CMC) 94 % of control and 102 % of control

CC(Cl)(Cl)CC(O)(C(F)(F)F)C(F)(F)F
inactive: [4] 95 % of control | [5] 105 % of control | [6] 91 % of control

Cc1cc(S(=O)(=O)F)ccc1NC(=O)Oc1ccccc1
inactive: dose: 100.0 mg/kg/injection, schedule: Q04DX003 (ip), vehicle: gum acacia 95 % of control | dose: 200.0 mg/kg/injection, schedule: Q04DX003 (ip), vehicle: gum acacia 104 % of control | dose: 400.0 mg/kg/injection, schedule: Q04DX003 (ip), vehicle: gum acacia 87 % of control

OCCc1ccccc1O
inactive: dose: 50.0 mg/kg/injection, schedule: Q01DX001 (ip), vehicle: saline 94 % of control | [7] 94 % of control | [8] 100 % of control | [9] 100 % of control

CC1C(=O)C2CCCCC2C1=O (stereo not given)
inactive: [7] 96 % of control | [8] 96 % of control | [9] 100 % of control

CCOC(=O)C(NC(C)=O)(C(=O)OCC)C(=O)c1ccc(Cl)cc1
inactive: [1] 89 % of control | [2] 94 % of control

CC1CC(=O)Oc2cc(O)c(O)cc21 (stereo not given)
inactive: [7] 101 % of control | [8] 95 % of control | [9] 95 % of control

CCC[CH2][Tl]([Br])[CH2]CCC
inactive: [10] 98 % of control | dose: 200.0 mg/kg/injection, schedule: Q04DX002 (ip), vehicle: saline with Tween-80 103 % of control | dose: 400.0 mg/kg/injection, schedule: Q04DX002 (ip), vehicle: saline with Tween-80 106 % of control

O=C(O)c1cc(I)ccc1I
inactive: [11] 93 % of control | [12] 104 % of control | dose: 400.0 mg/kg/injection, schedule: Q01DX009 (ip), vehicle: Klucel (hydroxypropylcellulose) (HPC) 103 % of control

CSc1ncc(Br)c(N2CC2)n1
inactive: dose: 59.0 mg/kg/injection, schedule: Q01DX Z (ip), vehicle: methylcellulose (MC) 89 % of control | dose: 88.0 mg/kg/injection, schedule: Q01DX Z (ip), vehicle: methylcellulose (MC) 86 % of control

CCOC(=O)C(Cc1c[nH]c2ccccc12)NC(=O)/C=C/N(CCCl)CCCl (stereo not given)
inactive: dose: 10.0 mg/kg/injection, schedule: Q01DX Z (ip), vehicle: other 91 % of control | dose: 20.0 mg/kg/injection, schedule: Q01DX Z (ip), vehicle: other 92 % of control | dose: 40.0 mg/kg/injection, schedule: Q01DX Z (ip), vehicle: other 94 % of control | dose: 80.0 mg/kg/injection, schedule: Q01DX Z (ip), vehicle: other 89 % of control

CC(=O)Nc1cc(C(C)=O)ccc1O
inactive: [13] 106 % of control | [14] 98 % of control | dose: 400.0 mg/kg/injection, schedule: Q04DX003 (ip), vehicle: Klucel (hydroxypropylcellulose) (HPC) 103 % of control

N#CC1(N2CCC3(CC2)OCCO3)CCCCC1
inactive: dose: 12.5 mg/kg/injection, schedule: Q01DX009 (ip), vehicle: Klucel (hydroxypropylcellulose) (HPC) 101 % of control | dose: 12.5 mg/kg/injection, schedule: Q04DX003 (ip), vehicle: Klucel (hydroxypropylcellulose) (HPC) 91 % of control | dose: 25.0 mg/kg/injection, schedule: Q01DX009 (ip), vehicle: Klucel (hydroxypropylcellulose) (HPC) 95 % of control | dose: 25.0 mg/kg/injection, schedule: Q04DX002 (ip), vehicle: Klucel (hydroxypropylcellulose) (HPC) 107 % of control | dose: 25.0 mg/kg/injection, schedule: Q04DX003 (ip), vehicle: Klucel (hydroxypropylcellulose) (HPC) 100 % of control | dose: 50.0 mg/kg/injection, schedule: Q04DX002 (ip), vehicle: Klucel (hydroxypropylcellulose) (HPC) 96 % of control | dose: 100.0 mg/kg/injection, schedule: Q04DX002 (ip), vehicle: Klucel (hydroxypropylcellulose) (HPC) 95 % of control

COc1cc([N+](=O)[O-])c2[nH]c(=O)ccc2c1
inactive: [1] 97 % of control | [2] 94 % of control | [3] 97 % of control

O=C(O)/C(=C\c1ccccc1)Sc1ccccc1
inactive: dose: 75.0 mg/kg/injection, schedule: Q01DX001 (ip), vehicle: acetone 105 % of control | dose: 150.0 mg/kg/injection, schedule: Q01DX001 (ip), vehicle: acetone 98 % of control | dose: 300.0 mg/kg/injection, schedule: Q01DX001 (ip), vehicle: acetone 100 % of control

CCCC(CC(=O)O)OC (stereo not given)
inactive: [7] 103 % of control | [8] 110 % of control | [9] 110 % of control

CC1CC(C)(C)N=C(C(C)C)O1 (stereo not given)
inactive: [15] 100 % of control | [16] 102 % of control | [17] 98 % of control | [4] 95 % of control | [18] 110 % of control | [5] 93 % of control

C=C(C)COc1c(C)cc(C)cc1[N+](=O)[O-]
inactive: [5] 96 % of control | [6] 100 % of control | dose: 400.0 mg/kg/injection, schedule: Q04DX003 (ip), vehicle: saline with Tween-80 97 % of control

O=S(=O)(n1ccnc1)C(F)(F)F
inactive: dose: 5.0 mg/kg/injection, schedule: Q01DX001 (ip), vehicle: saline 102 % of control | dose: 10.0 mg/kg/injection, schedule: Q01DX001 (ip), vehicle: saline 98 % of control | dose: 20.0 mg/kg/injection, schedule: Q01DX001 (ip), vehicle: saline 102 % of control | dose: 40.0 mg/kg/injection, schedule: Q01DX001 (ip), vehicle: saline 102 % of control

CN(C)c1ccc(/C=C/C(=O)Cc2ccccc2)cc1
inactive: dose: 1.56 mg/kg/injection, schedule: Q04DX002 (ip), vehicle: saline with Tween-80 109 % of control | dose: 3.13 mg/kg/injection, schedule: Q04DX002 (ip), vehicle: saline with Tween-80 103 % of control | dose: 6.25 mg/kg/injection, schedule: Q04DX002 (ip), vehicle: saline with Tween-80 98 % of control | dose: 12.5 mg/kg/injection, schedule: Q04DX002 (ip), vehicle: saline with Tween-80 95 % of control and 98 % of control | dose: 50.0 mg/kg/injection, schedule: Q04DX002 (ip), vehicle: saline with Tween-80 104 % of control | [10] 88 % of control

CCOC(=S)SCCC(=O)O
inactive: dose: 100.0 mg/kg/injection, schedule: Q01DX009 (ip), vehicle: saline with Tween-80 95 % of control

CN(C)CCOCCOC(=O)N1c2ccccc2Sc2ccccc21
inactive: dose: 6.25 mg/kg/injection, schedule: Q01DX009 (ip), vehicle: saline 106 % of control | dose: 6.25 mg/kg/injection, schedule: Q04DX003 (ip), vehicle: saline 102 % of control | [15] 95 % of control | dose: 12.5 mg/kg/injection, schedule: Q04DX003 (ip), vehicle: saline 105 % of control | [16] 97 % of control | dose: 25.0 mg/kg/injection, schedule: Q04DX003 (ip), vehicle: saline 97 % of control and 98 % of control | [17] 88 % of control | dose: 50.0 mg/kg/injection, schedule: Q04DX003 (ip), vehicle: saline 107 % of control and 109 % of control | [18] 103 % of control | dose: 100.0 mg/kg/injection, schedule: Q04DX003 (ip), vehicle: saline 102 % of control and 109 % of control

CCOC(=O)c1cnc(=S)[nH]c1N
inactive: dose: 50.0 mg/kg/injection, schedule: Q01DX009 (ip), vehicle: Klucel (hydroxypropylcellulose) (HPC) 102 % of control | dose: 50.0 mg/kg/injection, schedule: Q04DX003 (ip), vehicle: Klucel (hydroxypropylcellulose) (HPC) 95 % of control | [11] 96 % of control | [13] 95 % of control | [12] 93 % of control | [14] 97 % of control
